Measurements published in patent publication US4703044A, “Imidazoquinolines containing other heterocyclic groups, useful as anti-ulcer or anti-secretory agents” (John Wyeth & Brother Limited, priority 1983, dated 1987).
Where two headings read alike, the source gives them in different places.

How the values were obtained:
H^+ /K^+ ATPase = target: T1, H^+ /K^+ ATPase (Oryctolagus cuniculus, UniProt P27112); test: inhibition of 14C-aminopyrine accumulation in rabbit isolated gastric glands stimulated by DBcAMP or high K+ (H+/K+ ATPase inhibition); assay type: cell-based; details: 10^-4 M, 14C-aminopyrine uptake
T1 construct: Rabbit gastric glands are isolated from gastric mucosa from the corpus region of the stomach; from tissue; host or cells: isolated gastric glands from rabbit gastric mucosa, corpus region of the stomach
Experimental: Compounds of formula I were also tested for anti-secretory activity by their ability to inhibit the highly specific proton transporting enzyme H^+ /K^+ ATPase.
Potential H^+ /K^+ ATPase inhibitors are evaluated by a technique involving the measurement of aminopyrine accumulation in rabbit isolated gastric glands. Aminopyrine, which is a weak base, accumulates in acid-secreting cells; therefore, uptake of aminopyrine is increased by secretagogues and an inhibitor of acid secretion will reduce the response to one or more secretagogues depending upon its site of action. Compounds which reduce the response to dibutyryl cyclic adenosine monophosphate (DBcAMP) stimulation are assumed to have an intracellular site of action, and those which reduce the response to both DBcAMP and high potassium ion concentration (K^+) are thought to have an intracellular site of action at the secretory surface of the parietal cell, involving the highly specific proton - transporting enzyme, H^+ /K^+ ATPase. The following test procedure is used:
Rabbit gastric glands are isolated from gastric mucosa from the corpus region of the stomach by a method based on one described by Berglindh T., Obrink K. J., Acta Physiol. Scand. 96, 150-159 (1976). Measurement of aminopyrine uptake is carried out using a modification of the method described by Berglindh T., Hellander H. F., Obrink K. J. (ibid, 97, 401-414, 1976).
Compounds are tested at a concentration of 10^-4 M, initially, and in some cases at lower concentrations, for their ability to inhibit ^14 C-aminopyrine uptake in gastric glands, stimulated by DBcAMP and high K^+ respectively. Results are expressed as the % inhibition of the maximum response to the secretagogue induced by the test compound. An inhibitor of H^+ /K^+ ATPase would be expected to reduce the response to both secretagogues.

[1] = stress-induced erosion test (Senay and Levine), anti-ulcer activity; assay type: in vivo
Experimental: Anti-ulcer activity was determined by the stress-induced erosion test of Senay and Levine, Proc. Soc. Exp. Biol. Med., 124, 1221-3 (1967).

[2] = anti-secretory test of Shay et al (as exemplified by Beattie et al); assay type: in vivo; details: read-out: Anti-Secretory (Shay et al) % Change in volume
[3] = DBcAMP stimulation, read-out: % Inhibition to Stimulation by DBcAMP at 10^-4
[4] = high K+ stimulation, read-out: % Inhibition to Stimulation by K^+ at 10^-4

T1 sequence (P27112 whole entry): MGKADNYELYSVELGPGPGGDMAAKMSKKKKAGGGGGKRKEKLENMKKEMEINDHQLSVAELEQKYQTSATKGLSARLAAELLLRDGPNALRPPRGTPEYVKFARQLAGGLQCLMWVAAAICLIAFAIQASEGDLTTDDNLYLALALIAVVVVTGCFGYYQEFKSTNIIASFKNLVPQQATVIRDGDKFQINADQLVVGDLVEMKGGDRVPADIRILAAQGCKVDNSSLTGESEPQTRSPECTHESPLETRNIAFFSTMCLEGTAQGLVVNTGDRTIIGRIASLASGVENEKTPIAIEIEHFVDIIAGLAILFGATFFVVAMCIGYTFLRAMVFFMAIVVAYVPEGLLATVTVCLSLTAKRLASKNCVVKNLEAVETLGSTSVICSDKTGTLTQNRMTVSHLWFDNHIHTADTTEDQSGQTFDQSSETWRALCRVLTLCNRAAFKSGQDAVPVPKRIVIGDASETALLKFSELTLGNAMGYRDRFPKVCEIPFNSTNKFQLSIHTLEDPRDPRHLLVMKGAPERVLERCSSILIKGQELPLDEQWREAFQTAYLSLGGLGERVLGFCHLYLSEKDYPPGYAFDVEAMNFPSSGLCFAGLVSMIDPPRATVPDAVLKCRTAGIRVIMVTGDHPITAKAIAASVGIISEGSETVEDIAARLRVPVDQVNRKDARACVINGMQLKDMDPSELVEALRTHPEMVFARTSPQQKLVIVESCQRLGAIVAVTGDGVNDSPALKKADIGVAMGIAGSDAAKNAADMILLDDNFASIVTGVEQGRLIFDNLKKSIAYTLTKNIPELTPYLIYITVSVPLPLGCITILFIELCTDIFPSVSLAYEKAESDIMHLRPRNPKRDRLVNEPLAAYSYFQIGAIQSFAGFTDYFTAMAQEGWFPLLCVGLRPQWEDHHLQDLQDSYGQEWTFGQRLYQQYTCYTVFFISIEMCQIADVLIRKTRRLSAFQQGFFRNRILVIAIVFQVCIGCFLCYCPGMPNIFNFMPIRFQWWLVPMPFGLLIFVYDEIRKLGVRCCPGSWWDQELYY
T1 sequence (P18597 whole entry partner): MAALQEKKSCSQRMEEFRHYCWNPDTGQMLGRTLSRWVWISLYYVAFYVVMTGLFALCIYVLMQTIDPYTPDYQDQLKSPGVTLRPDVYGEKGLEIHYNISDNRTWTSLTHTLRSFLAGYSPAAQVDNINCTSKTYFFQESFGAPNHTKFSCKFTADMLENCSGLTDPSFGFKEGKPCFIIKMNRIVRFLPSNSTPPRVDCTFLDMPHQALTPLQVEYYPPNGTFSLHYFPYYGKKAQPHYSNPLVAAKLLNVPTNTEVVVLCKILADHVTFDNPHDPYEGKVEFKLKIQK

Row | inhibition at 100 µM (H^+ /K^+ ATPase; [3]) | inhibition at 100 µM (H^+ /K^+ ATPase; [4]) | Structure (SMILES) | inhibition in vivo at 100 mg/kg [1] | change in vivo at 30 mg/kg [2]
1 | 66% |  | c1cc2c3c(c1)nc(SCc1ccncc1)n3CCC2 [Example 21, 5,6-Dihydro-2-(4-pyridylmethylthio)-4H-imidazo[4,5,1-ij]-quinoline] |  | 
2 | 16.7% | 35.5% | C1=Cc2cccc3nc(SCc4ccccn4)n(c23)C1 [Example 4, 2-(2-Pyridylmethylthio)-4[H]-imidazo-[4,5,1-ij]quinoline] |  | 
3 |  | -109% | Cc1cccnc1CSc1nc2cccc3c2n1CCC3 [Example 3, 5,6-Dihydro-2-(2-(3-methylpyridyl)methylthio)-4-[H]-imidazo-[4,5,1-ij]quinoline] | 68% | 
4 | 98% | 136% | COc1cc2c3c(c1)nc(SCc1cccc(-c4ccccc4)n1)n3CCC2 [Example 10B, 5,6-Dihydro-8-methoxy-2-[(6-phenylpyridin-2-yl)-methylthio]-4H-imidazo[4,5,1-ij]quinoline] |  | 
5 | 62% | 147% | c1ccc2nc(CSc3nc4cccc5c4n3CCC5)ccc2c1 [Example 11, 5,6-dihydro-2-(quinolin-2-ylmethylthio)-4H-imidazo[4,5,1-ij]quinoline] |  | 22%
6 | 34% |  | c1ccc(CSc2nc3cccc4c3n2CCC4)nc1 [Example 1, 5,6-Dihydro-2-(2-pyridylmethylthio)-4H-imidazo-[4,5,1-ij]-quinoline] | 69% | 
7 | 97% | 65% | [O-][S+](Cc1ccccn1)c1nc2cccc3c2n1CCC3 (stereo not drawn) [Example 2, 2-(2-Pyridylmethylsulphinyl)-5,6-dihydro-4H-imidazo-[4,5,1-ij]quinoline] | 60% | 
8 | 68% |  | COc1cc2c3c(c1)nc(SCc1ccncc1)n3CCC2 [Example 20, 5,6-Dihydro-8-methoxy-2-(4-pyridylmethylthio)-4H-imidazo[4,5,1-ij]quinoline] |  | 
9 | 36% | 182% | c1ccc(-c2cccc(CSc3nc4cccc5c4n3CCC5)n2)cc1 [Example 6, 5,6-Dihydro-2-(2-(6-phenylpyridyl)methylthio)-[4H]-imidazo-[4,5,1-ij]quinoline] | 58% | 
10 | 75% | 122% | c1ccc(-c2nc(CSc3nc4cccc5c4n3CCC5)cs2)cc1 [Example 9, 5,6-Dihydro-2-[(2-phenylthiazol-4-yl)methylthio]-4H-imidazo[4,5,1-ij]quinoline] |  | 
11 | 66% |  | Cc1cccnc1C[S+]([O-])c1nc2cccc3c2n1CCC3 (stereo not drawn) [Example 5, 5,6-Dihydro-2-(2-(3-methylpyridyl)methylsulphinyl)-[4H]-imidazo-[4,5,1-ij]quinoline] |  | 
12 | 70% | 74% | Cc1cnc(CSc2nc3cccc4c3n2CCC4)c(C)c1 [Example 7, 5,6-Dihydro-2-(2-(3,5-dimethylpyridyl)methylthio)-[4H]-imidazo-[4,5,1-ij]quinoline] |  | 
13 | 70% | 124% | COc1cc2c3c(c1)nc(SCc1ccc4ccccc4n1)n3CCC2 [Example 19, 5,6-Dihydro-8-methoxy-2-(quinolin-2-ylmethylthio)-4H-imidazo-[4,5,1-ij]quinoline] |  | 
14 | 48% |  | Cc1cnc(C[S+]([O-])c2nc3cccc4c3n2CCC4)c(C)c1 (stereo not drawn) [Example 8] |  | 
